# Data: paper PMC7262662 (BioMed Research International, 2020)
# Where two headings read alike, the source gives them in different places. Marks after values point to notes of the source that are not given here.
# Columns and labels:
# [1] = Pharmacokinetics study in healthy cats (plasma curcumin by HPLC); type: in vivo; details: for Curcumin content in plasma: any interval, not detected, below detection limit of HPLC; for Tmax / Cmax / AUC(0-t): po, 250 mg/kg; for Cmax: plasma curcumin
# Experimental: Single-dosing (s.i.d.) and two-dosing (b.i.d.) oral administration of curcumin and Cur-CS nanoparticle pharmacokinetics study spanning 24 h was performed in the cats, which weighed 1.5–3.5 kg. The cats were randomly divided into four groups, and each group contained four cats. […] Prior to and 0.5, 1, 2, 3, 4, 8, 12, and 24 h after the treatments, 1 mL blood was harvested via jugular, cephalic, or saphenous venipuncture into lithium heparinized tubes (BD, Franklin Lakes, NJ, USA). The plasma was immediately centrifuged at 500 g for 5 min at 4°C and stored at -80°C until use. The cats then underwent a 2-week washout and rest period prior to testing on the following treatment and series of blood collection. All the cats were neutered at the end of the study and adopted by the public. Curcumin was extracted from plasma using the polar solvent extraction method. Ethyl acetate (500 μL) was added to 200 μL plasma and vortexed for 10 min. The samples were centrifuged at 4000 g at 10°C for 15 min, and the upper ethyl acetate layer was transferred to a new 1.5 mL tube. The extraction was repeated twice and performed under dim light conditions to prevent the degradation of curcumin. […] An aliquot of a 20 μL sample was analysed for quantifying the curcumin in the plasma by HPLC. The curcumin was quantified using a Series 1200 Quaternary HPLC system (Agilent Technologies, Santa Clara, CA, USA) with an UV-Vis detector equipped with an Eclipse Plus C18 column (Agilent Technologies). The HPLC system was first optimised as previously described and further adjusted to suitable settings. […] The flow rate of the mobile phase was maintained at 1 mL/min with an injection volume of 20 μL sample, where the column temperature was maintained at 35°C. The detector signal of the HPLC system for curcumin detection was adjusted to 425 nm. A 6-point calibration curve was prepared by serial dilution of 1 mg/mL curcumin stock solution in methanol. Curcumin concentrations (ng/mL) in the plasma were calculated based on the calibration curve. Time to reach maximum plasma concentration (Tmax) and maximum plasma concentration (Cmax) values were obtained directly from the measured data. The area under the curve from 0 to t (AUC0-t) was calculated using the linear-log trapezoidal method.
# FIPV-infected cells = test: Feline-specific magnetic bead-based multiplex immunoassay; type: cell-based; details: 20 μM
# Experimental: The culture supernatant was centrifuged and used for the bead-based multiplex immunoassay, while the attached cells were trypsinised and collected for the cellular proinflammatory cytokine mRNA expression study.
# Nineteen immune-related proteins including cytokines, chemokines, growth factors, and other immunologically active proteins were measured using a commercially available feline-specific magnetic bead-based multiplex immunoassay. The Feline Cytokine/Chemokine Magnetic Bead Panel Premixed (FCYTOMAG-20K-PMX; EMD Millipore, Billerica, MA, USA) was purchased and used according to the manufacturer's recommendation. Quality control samples, standards, and sets of culture sample were run on plates in duplicate. Prior to measurement, the culture samples were concentrated using Concentrator 5301 (Eppendorf, Hamburg, Germany). The plates were evaluated using MAGPIX® (Luminex, Austin, TX, USA); subsequently, the results were analysed using MILLIPLEX Analyst v.5.1 (EMD Millipore, Billerica, MA, USA).
# [2] = plasma, oral 250 mg/kg, single dosing (s.i.d.)
compound,measurement,setting,value
COc1cc(/C=C/C(=O)CC(=O)/C=C/c2ccc(O)c(OC)c2)ccc1O [Curcumin],Curcumin content in plasma,[1]; 50 mg/kg,< 25 ng/mL
same,Curcumin content in plasma,[1]; 100 mg/kg,< 25 ng/mL
same,Tmax,"[1]; cat, plasma, oral 250 mg/kg, b.i.d. study, as stated in the text (similar to s.i.d. profile)",2 to 4 h
same,AUC0-12 as share of AUC0-∞,[1]; oral 250 mg/kg,more than 80%
same,AUC(0-inf),[1]; [2],1370 ± 112 ng·h/mL
same,Tmax,[1]; [2],3 h
same,Cmax,[1]; [2],220 ± 18.6 ng/mL
same,AUC(0-t),"[1]; plasma, oral 250 mg/kg, single dosing (s.i.d.), read-out: AUC0-12",1140 ± 137 ng·h/mL
same,Cmax,"[1]; plasma, oral 250 mg/kg, two dosing (b.i.d.) 12 h apart",241 ± 27.1 ng/mL
same,Tmax,"[1]; plasma, oral 250 mg/kg, two dosing (b.i.d.), after the second dose",4 h
same,AUC(0-t),"[1]; plasma, oral 250 mg/kg, two dosing (b.i.d.), read-out: AUC0-12",1510 ± 72.4 ng·h/mL
same,AUC(0-t),"[1]; plasma, oral 250 mg/kg, two dosing (b.i.d.), read-out: AUC0-24",3100 ± 176 ng·h/mL
same,TNFα concentration,"FIPV-infected cells; 24 h, infected cells untreated 38.13 ± 0.00",37.40 ± 1.04^b pg/mL
same,IL-18 concentration,"FIPV-infected cells; 24 h, infected cells untreated 60.62 ± 3.50",47.92 ± 1.73^ab pg/mL
same,KC concentration,"FIPV-infected cells; 24 h, infected cells untreated 80.76 ± 3.71",58.52 ± 15.92^bc pg/mL
same,SDF-1 concentration,"FIPV-infected cells; 24 h, infected cells untreated 161.3 ± 7.1",163.5 ± 3.1^b pg/mL
same,PDGF-BB concentration,"FIPV-infected cells; 24 h, infected cells untreated 445.6 ± 18.7",446.0 ± 0.0^b pg/mL
same,RANTES concentration,"FIPV-infected cells; 24 h, infected cells untreated 868.6 ± 62.1",746.7 ± 18.3^c pg/mL
same,MCP-1 concentration,"FIPV-infected cells; 24 h, infected cells untreated 934.8 ± 0.0",934.8 ± 0.0^c pg/mL
same,IL-8 concentration,"FIPV-infected cells; 24 h, infected cells untreated 2078.0 ± 138.6",1509.5 ± 16.3^c pg/mL
same,TNFα concentration,"FIPV-infected cells; 48 h, infected cells untreated 46.83 ± 6.11",35.18 ± 2.09^a pg/mL
same,IL-6 concentration,"FIPV-infected cells; 48 h, infected cells untreated 108.06 ± 4.85",54.75 ± 6.34^∗ pg/mL
same,SDF-1 concentration,"FIPV-infected cells; 48 h, infected cells untreated 158.2 ± 0.9",84.2 ± 2.9^a pg/mL
same,KC concentration,"FIPV-infected cells; 48 h, infected cells untreated 266.1 ± 35.2",186.4 ± 14.2^c pg/mL
same,PDGF-BB concentration,"FIPV-infected cells; 48 h, infected cells untreated 440.5 ± 43.1",354.2 ± 30.0^a pg/mL
same,MCP-1 concentration,"FIPV-infected cells; 48 h, infected cells untreated 934.2 ± 57.9",735.5 ± 34.2^a pg/mL
same,IL-8 concentration,"FIPV-infected cells; 48 h, infected cells untreated 1660.0 ± 196.6",1074.5 ± 9.2^b pg/mL
same,RANTES concentration,"FIPV-infected cells; 48 h, infected cells untreated 2317.0 ± 355.0",618.6 ± 70.8^b pg/mL
